Source: patent publication US11498899B2, “Nitrone herbicides” (FMC Corporation, priority 2016, dated 2022)

Assays:
[1] = tested on: pigweed (Amaranthus retroflexus); assay: Test A postemergence, visual injury rating 0-100; type: in vivo; details: 0 to 100 scale
[2] = tested on: wheat (Triticum aestivum); assay: Test A postemergence, visual injury rating 0-100; type: in vivo; details: 0 to 100 scale
[3] = tested on: barnyardgrass (Echinochloa crus-galli); assay: Test A postemergence, visual injury rating 0-100; type: in vivo; details: 0 to 100 scale
kochia (Kochia scoparia) [4] = assay: Test A postemergence, visual injury rating 0-100; type: in vivo; details: 0 to 100 scale
[5] = tested on: blackgrass (Alopecurus myosuroides); assay: Test A postemergence, visual injury rating 0-100; type: in vivo; details: 0 to 100 scale
[6] = tested on: foxtail, green (green foxtail, Setaria viridis); assay: Test A postemergence, visual injury rating 0-100; type: in vivo; details: 0 to 100 scale
[7] = tested on: ryegrass, Italian (Italian ryegrass, Lolium multiflorum); assay: Test A postemergence, visual injury rating 0-100; type: in vivo; details: 0 to 100 scale
[8] = tested on: ragweed (common ragweed, Ambrosia elatior); assay: Test A postemergence, visual injury rating 0-100; type: in vivo; details: 0 to 100 scale
[9] = tested on: galium (catchweed bedstraw, Galium aparine); assay: Test A postemergence, visual injury rating 0-100; type: in vivo; details: 0 to 100 scale
corn (Zea mays) = assay: Test A postemergence, visual injury rating 0-100; type: in vivo; details: 0 to 100 scale
[10] = tested on: pigweed (Amaranthus retroflexus); assay: Test A preemergence, visual injury rating 0-100; type: in vivo; details: for Pigweed plant response rating (0 to 100 scale): 125 g ai/ha; for Pigweed plant response rating: 500 g ai/ha, 0 to 100 scale
kochia (Kochia scoparia) [11] = assay: Test A preemergence, visual injury rating 0-100; type: in vivo; details: for Kochia plant response rating (0 to 100 scale): 125 g ai/ha; for Kochia plant response rating: 500 g ai/ha, 0 to 100 scale
[12] = tested on: foxtail, green (green foxtail, Setaria viridis); assay: Test A preemergence, visual injury rating 0-100; type: in vivo; details: for Foxtail, Green plant response rating (0 to 100 scale): 125 g ai/ha; for Foxtail, Green plant response rating: 500 g ai/ha, 0 to 100 scale
[13] = tested on: ryegrass, Italian (Italian ryegrass, Lolium multiflorum); assay: Test A preemergence, visual injury rating 0-100; type: in vivo; details: for Ryegrass, Italian plant response rating (0 to 100 scale): 125 g ai/ha; for Ryegrass, Italian plant response rating: 500 g ai/ha, 0 to 100 scale
[14] = tested on: ragweed (common ragweed, Ambrosia elatior); assay: Test A preemergence, visual injury rating 0-100; type: in vivo; details: for Ragweed plant response rating (0 to 100 scale): 125 g ai/ha; for Ragweed plant response rating: 500 g ai/ha, 0 to 100 scale
[15] = tested on: ducksalad (Heteranthera limosa); assay: Test B flooded paddy test, visual rating 0-100; details: Flood, 250 g ai/ha, applied to paddy water, rated after 13 to 15 days
rice (Oryza sativa) = assay: Test B flooded paddy test, visual rating 0-100 (0 no effect, 100 complete control); details: Flood, 250 g ai/ha, applied to paddy water, rated after 13 to 15 days
[16] = tested on: barnyardgrass (Echinochloa crus-galli); assay: Test A preemergence, visual injury rating 0-100 (0 no effect, 100 complete control); type: in vivo; details: for Barnyardgrass plant response rating (0 to 100 scale): 125 g ai/ha; for Barnyardgrass plant response rating: 500 g ai/ha, 0 to 100 scale
[17] = tested on: barnyardgrass (Echinochloa crus-galli); assay: Test B flooded paddy test, visual rating 0-100; details: Flood, 250 g ai/ha, applied to paddy water, rated after 13 to 15 days

Row | SMILES | Pigweed plant response rating ([1]; 125 g ai/ha) | Pigweed plant response rating ([1]; 500 g ai/ha) | Wheat plant response rating ([2]; 125 g ai/ha) | Wheat plant response rating ([2]; 500 g ai/ha) | Barnyardgrass plant response rating ([3]; 125 g ai/ha) | Barnyardgrass plant response rating ([3]; 500 g ai/ha) | Kochia plant response rating (kochia (Kochia scoparia) [4]; 125 g ai/ha) | Kochia plant response rating (kochia (Kochia scoparia) [4]; 500 g ai/ha) | Blackgrass plant response rating ([5]; 125 g ai/ha) | Blackgrass plant response rating ([5]; 500 g ai/ha) | Foxtail, Green plant response rating ([6]; 125 g ai/ha) | Foxtail, Green plant response rating ([6]; 500 g ai/ha) | Ryegrass, Italian plant response rating ([7]; 125 g ai/ha) | Ryegrass, Italian plant response rating ([7]; 500 g ai/ha) | Ragweed plant response rating ([8]; 125 g ai/ha) | Ragweed plant response rating ([8]; 500 g ai/ha) | Galium plant response rating ([9]; 125 g ai/ha) | Galium plant response rating ([9]; 500 g ai/ha) | Corn plant response rating (corn (Zea mays); 125 g ai/ha) | Corn plant response rating (corn (Zea mays); 500 g ai/ha) | other results
1 | CC1=[N+]([O-])C(C(=O)Nc2cccc(F)c2F)C(c2ccccc2)C1 (racemic) [Compound 16] | 0 | 20 | 0 | 0 | 80 | 90 | 0 | 20 | 0 | 0 | 10 | 80 | 0 | 0 | 0 | 20 | 0 | 30 | 0 | 0 | Pigweed plant response rating (0 to 100 scale) [10]: 0; Pigweed plant response rating [10]: 70; Kochia plant response rating (0 to 100 scale) (kochia (Kochia scoparia) [11]): 0; Kochia plant response rating (kochia (Kochia scoparia) [11]): 30; Foxtail, Green plant response rating (0 to 100 scale) [12]: 100; Foxtail, Green plant response rating [12]: 100; Ryegrass, Italian plant response rating (0 to 100 scale) [13]: 0; Ryegrass, Italian plant response rating [13]: 0; Ragweed plant response rating (0 to 100 scale) [14]: 0; Ragweed plant response rating [14]: 20; Ducksalad plant response rating (0 to 100 scale) [15]: 100; Rice plant response rating (0 to 100 scale) (rice (Oryza sativa)): 0; Barnyardgrass plant response rating (0 to 100 scale) [16]: 100; Barnyardgrass plant response rating [16]: 100; Barnyardgrass plant response rating (0 to 100 scale) [17]: 85
2 | CC1=[N+]([O-])C(C(=O)Nc2ccccc2)C(c2ccc(F)c(F)c2)C1 (racemic) [Compound 17] | 0 | 0 | 0 | 0 | 0 | 0 | 0 | 0 | 0 | 0 | 20 | 20 | 0 | 0 | 0 | 0 | 0 | 0 | 0 | 20 | Pigweed plant response rating (0 to 100 scale) [10]: 0; Pigweed plant response rating [10]: 0; Kochia plant response rating (0 to 100 scale) (kochia (Kochia scoparia) [11]): 0; Kochia plant response rating (kochia (Kochia scoparia) [11]): 0; Foxtail, Green plant response rating (0 to 100 scale) [12]: 0; Foxtail, Green plant response rating [12]: 50; Ryegrass, Italian plant response rating (0 to 100 scale) [13]: 0; Ryegrass, Italian plant response rating [13]: 0; Ragweed plant response rating (0 to 100 scale) [14]: 0; Ragweed plant response rating [14]: 0; Ducksalad plant response rating (0 to 100 scale) [15]: 40; Rice plant response rating (0 to 100 scale) (rice (Oryza sativa)): 0; Barnyardgrass plant response rating (0 to 100 scale) [16]: 0; Barnyardgrass plant response rating [16]: 20; Barnyardgrass plant response rating (0 to 100 scale) [17]: 0
3 | CC1=[N+]([O-])C(C(=O)Nc2cccc(F)c2F)C(c2cccc(Br)c2)C1 (racemic) [Compound 19] | 0 | 20 | 0 | 70 | 10 | 90 | 0 | 30 | 20 | 60 | 30 | 60 | 0 | 40 | 0 | 20 | 0 | 30 | 30 | 80 | Pigweed plant response rating (0 to 100 scale) [10]: 20; Pigweed plant response rating [10]: 60; Kochia plant response rating (0 to 100 scale) (kochia (Kochia scoparia) [11]): 0; Kochia plant response rating (kochia (Kochia scoparia) [11]): 60; Foxtail, Green plant response rating (0 to 100 scale) [12]: 50; Foxtail, Green plant response rating [12]: 90; Ryegrass, Italian plant response rating (0 to 100 scale) [13]: 0; Ryegrass, Italian plant response rating [13]: 40; Ragweed plant response rating (0 to 100 scale) [14]: 20; Ragweed plant response rating [14]: 50; Ducksalad plant response rating (0 to 100 scale) [15]: 95; Rice plant response rating (0 to 100 scale) (rice (Oryza sativa)): 15; Barnyardgrass plant response rating (0 to 100 scale) [16]: 70; Barnyardgrass plant response rating [16]: 90; Barnyardgrass plant response rating (0 to 100 scale) [17]: 85
4 | CC1=[N+]([O-])C(C(=O)Nc2cccc(F)c2F)C(c2ccc(Br)cc2)C1 (racemic) [Compound 20] | 0 | 40 | 0 | 30 | 10 | 50 | 0 | 30 | 0 | 30 | 0 | 60 | 0 | 30 | 0 | 30 | 30 | 40 | 0 | 0 | Pigweed plant response rating (0 to 100 scale) [10]: 60; Pigweed plant response rating [10]: 80; Kochia plant response rating (0 to 100 scale) (kochia (Kochia scoparia) [11]): 0; Kochia plant response rating (kochia (Kochia scoparia) [11]): 50; Foxtail, Green plant response rating (0 to 100 scale) [12]: 60; Foxtail, Green plant response rating [12]: 90; Ryegrass, Italian plant response rating (0 to 100 scale) [13]: 0; Ryegrass, Italian plant response rating [13]: 20; Ragweed plant response rating (0 to 100 scale) [14]: 20; Ragweed plant response rating [14]: 60; Ducksalad plant response rating (0 to 100 scale) [15]: 100; Rice plant response rating (0 to 100 scale) (rice (Oryza sativa)): 0; Barnyardgrass plant response rating (0 to 100 scale) [16]: 60; Barnyardgrass plant response rating [16]: 90; Barnyardgrass plant response rating (0 to 100 scale) [17]: 95
